Data as given in patent publication US10668040B2, “Treatment of urea cycle disorders in neonates and infants” (Horizon Therapeutics, LLC, priority 2017, dated 2020).

Assays:
Format in all cases: in vivo, human
[1] = Pharmacokinetics of HPN-100 and NaPBA, study HPN-100-005; settings: HPN-100-005 (N = 11)
Text: (§1) The pharmacokinetics of the short term studies can be summarized as follows. Mean exposure levels of HPN-100 metabolites PBA, PAA, and PAGN after doses of HPN-100 and NaPBA with meals (TID) in pediatric (29 days to 17 years of age) UCD patients in HPN-100-005 and HPN-100-012 studies are summarized below. The mean exposure to PBA, the parent metabolite, and mean exposure to PAGN, the terminal metabolite, show no systematic variation across age groups, while PAA exposure tended to decrease with increasing age, a finding consistent with those from population PK modeling which indicate that the rate of clearance/metabolism of PAA varies directly with body size. While systemic metabolite exposure, assessed as peak plasma concentration (Cmax) or AUC, is generally similar for HPN-100 and NaPBA, the minimum concentration (Cmin-ss) was higher—and/or percent-fluctuation less—for plasma PAGN, a finding consistent with slower gastrointestinal absorption of PBA when administered orally as HPN-100.

[2] = test system: pediatric patients with UCDs; assay: HPN-100-012 switch-over study: 24-hour blood ammonia on HPN-100 vs NaPBA
Text: HPN-100-012 was an open-label, fixed sequence, switch-over study of the safety, PK and efficacy of HPN-100 compared to NaPBA in patients with UCDs, with a 12-month safety extension part. […] After review of all the safety data by the DSMB, 8 additional subjects were enrolled in the study after the switch-over phase was completed.

[3] = Pharmacokinetics of HPN-100 and NaPBA, study HPN-100-012; settings: HPN-100-012 (N = 15)
Text: as §1

pediatric UCD patients = assay: Pooled ammonia analyses from short term studies
Experimental: Pooled ammonia analyses from short term studies were also conducted.

## O=C([O-])CCCc1ccccc1.[Na+] [NaPBA, sodium phenylbutyrate]
[1]; mean (CV %)
  Plasma PAA % Fluctuation: 3931 (85.1) %
  Plasma PAA AUC0-24: 773 (73.3) μg · h/mL
  Plasma PAA CLss/F: 34391 (162.5) mL/min
  Plasma PAA Cmax-ss: 75.1 (64.4) μg/mL
  Plasma PAA Cmin-ss: 0.674 (130.5) μg/mL
  Plasma PAGN % Fluctuation: 1917 (54.8) %
  Plasma PAGN AUC0-24: 1015 (44.7) μg · h/mL
  Plasma PAGN CLss/F: 19739 (44.3) mL/min
  Plasma PAGN Cmax-ss: 74.8 (37.3) μg/mL
  Plasma PAGN Cmin-ss: 4.6 (66.4) μg/mL
  Plasma PBA % Fluctuation: 1979 (123.7) %
  Plasma PBA AUC0-24: 236 (105.2) μg · h/mL
  Plasma PBA CLss/F: 145463 (123.4) mL/min
  Plasma PBA Cmax-ss: 37.4 (101.6) μg/mL
  Plasma PBA Cmin-ss: 0.37 (171.3) μg/mL
  U-PAGN Ae: 12512426 (51.3) μg
  U-PAGN Ae0-12: 7098020 (47.5) μg
  U-PAGN Ae12-24: 5414406 (71.9) μg
  U-PAGN Fe0-12: 39.6 (30.0) %
  U-PAGN Fe12-24: 29.3 (52.8) %
  U-PAGN Fe % dose: 69.0 (23.9) %
[1]; median
  Plasma PAA Tmax-ss: 12.00 h
  Plasma PAGN Tmax-ss: 12.00 h
  Plasma PBA Tmax-ss: 12.00 h
[2]; 12-hour time point, HPN-100 Day 10, NaPBA Day 1
  Mean blood ammonia: 41.03 µmol/L
[2]; 24-hour time point, NaPBA Day 1
  Mean blood ammonia: 34.66 µmol/L
[2]; pre-dose and 24 hours post dose
  Mean blood ammonia levels following an overnight fast: normal
[3]; mean (CV %)
  Plasma PAA % Fluctuation: 1289 (102.8) %
  Plasma PAA AUC0-24: 1458 (211.3) μg · h/mL
  Plasma PAA CLss/F: 94249 (243.7) mL/min
  Plasma PAA Cmax-ss: 98.0 (152.1) μg/mL
  Plasma PAA Cmin-ss: 49.2 (287.2) μg/mL
  Plasma PAGN % Fluctuation: 1459 (74.1) %
  Plasma PAGN AUC0-24: 946 (75.5) μg · h/mL
  Plasma PAGN CLss/F: 14360 (93.0) mL/min
  Plasma PAGN Cmax-ss: 74.4 (61.3) μg/mL
  Plasma PAGN Cmin-ss: 17.7 (159.6) μg/mL
  Plasma PBA % Fluctuation: 5102 (75.9) %
  Plasma PBA AUC0-24: 483 (146.0) μg · h/mL
  Plasma PBA CLss/F: 112093 (136.4) mL/min
  Plasma PBA Cmax-ss: 60.4 (128.3) μg/mL
  Plasma PBA Cmin-ss: 0.993 (227.3) μg/mL
[3]; median
  Plasma PAA Tmax-ss: 8.00 h
  Plasma PAGN Tmax-ss: 8.00 h
  Plasma PBA Tmax-ss: 8.30 h
Pediatric UCD patients
  abnormal ammonia values: 35%
